Experimental data: PMC5352051, “Identification of a novel Polo-like kinase 1 inhibitor that specifically blocks the functions of Polo-Box domain” (Oncotarget, 2016)
pIC50: −log10 of the molar value.

Legend:
HeLa cells = assay: Immunofluorescence assay, mitotic phase distribution; type: cell-based, human; details: 10 hrs; for percentage of prometaphase cells: synchronized HeLa, control 23.3%
Experimental: To determine mitotic phase distribution, about 50 mitotic cells were analyzed. Cells were classified according to the structure and alignment of the chromosomes as well as the number and location of the centrosomes. All experiments were performed in triplicate. For confocal microscopy, HeLa cells grown on coverslips were fixed and permeabilized in methanol for 15 min at −20°C and then incubated with blocking buffer (PBS with 0.1% Triton X-100 and 5% BSA) for 2 hrs at RT. And then the coverslips were followed by washing and incubation with primary antibodies and fluorophore-conjugated secondary antibodies for 1 hr at RT, respectively. All antibodies were diluted in blocking buffer and the coverslips were washed three times with PBST, and then all coverslips were treated with 4',6-diamidino-2-phenylindole (DAPI) (Sigma; 2 μg/mL) for 2 min at RT, washed again and mounted onto slides using ProLong Diamond Antifade Mountant (Cat# 36961; Molecular Probes). Immunofluorescence images were taken with Olympus FV1000 Confocal Laser Microscope (Olympus, Japan) at 600×magnification. All images were processed using FV10-ASW 3.0 Viewer Software System (Olympus, Japan). The following antibodies were used: anti-α-Tubulin mouse monoclonal antibody (Cat# T9026; Sigma; 1:800), anti-γ-Tubulin rabbit polyclonal antibody (Cat# T3559; Sigma; 1:1500), Alex Fluor 488-conjugated goat anti-mouse IgG (Cat# A-11011; Molecular Probes; 1:1000) and Alex Fluor 594-conjugated donkey anti-rabbit IgG (Cat# A-21207; Molecular Probes; 1:1000).

Plk3 PBD = molecular target: T1, Plk3 PBD (Homo sapiens, UniProt Q9H4B4); assay: Fluorescence polarization assay, Plk3 PBD / FITC-labeled phosphopeptide; type: binding; details: Plk3 PBD
T1 construct: (326-603 aa), Plk2 (355-685 aa), and Plk3 (335-646 aa); GST (N); made in house; host or cells: E. coli Rosetta BL21(DE3)
T1 sequence (Q9H4B4 335-646): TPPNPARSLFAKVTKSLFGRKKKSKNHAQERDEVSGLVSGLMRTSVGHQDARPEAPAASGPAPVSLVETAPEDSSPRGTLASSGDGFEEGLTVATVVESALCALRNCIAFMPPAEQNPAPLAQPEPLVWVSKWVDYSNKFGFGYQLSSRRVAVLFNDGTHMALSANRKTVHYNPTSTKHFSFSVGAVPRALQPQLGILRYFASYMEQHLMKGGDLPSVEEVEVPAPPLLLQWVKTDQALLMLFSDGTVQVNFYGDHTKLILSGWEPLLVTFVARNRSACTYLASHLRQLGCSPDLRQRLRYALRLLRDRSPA
Experimental: FP assay was performed as follow. […] We calculated the percentage of inhibition for each sample as follows: Inhibition(%)=Negative−Sample/Negative−Positive×100%
We plotted the inhibition values and determined IC50 using GraphPad Prism5.0. Together with the FITC-labeled peptides used for Plk1 PBD as mentioned above, the following peptides were used for specificity assays, FITC-GPMQTSpTPKNG-OH (Plk2 PBD), FITC-GPLATSpTPKNG-OH (Plk3 PBD).

HEK-293 = assay: MTT assay; type: cell-based; details: Homo sapiens, HEK293; HEK-293, Kidney, normal; read-out: IC50 proliferation
Experimental: The MTT assay was performed as described. In brief, cells were seeded at 3000~5000 cells/well into 96-well plates (200 μL/well) and incubated overnight. We replaced the growth medium with fresh medium containing T521 at several concentrations (two-fold dilutions and the initial concentration is 50 μM, 10 reactions total). After further incubation for 48 hrs in the presence of T521, the medium was removed from all wells and the cells were incubated with 200 μL of fresh medium for additional 24 hrs. We then added 22 μL of MTT solution (Amresco; 5 mg/mL in PBS) to each well and incubated the plate for 4 hrs at 37°C. After removing the medium, we dissolved the purple MTT-formazan crystals by adding 150 μL of DMSO to each well and recorded absorbance at 560 nm by Envision Multilabel Reader (PerkinElmer). The inhibition curve was plotted to determine the IC50 of various cell lines using GraphPad Prism5.0.

Plk1-Bub1 interaction = molecular target: T2, Plk1-Bub1 interaction (Homo sapiens, UniProt P53350); assay: Co-immunoprecipitation (IP) assay in HeLa cells; type: cell-based; details: HeLa cells released from double-thymidine arrest, 5, 10, 15 μM, 10 hrs
T2 construct: endogenous in cells; host or cells: HeLa
Experimental: HeLa cells were synchronized in G1/S boundary by double-thymidine block as described, and then released into medium containing DMSO and T521 (5, 10, 15 μM) for 10 hrs. For Co-IP assay, rabbit polyclonal anti-Bub1 antibody (Cat# ab70372; Abcam) was coupled to Protein A-Agarose beads (Cat# sc-2001; Santa Cruz) at a concentration 100 μg/mL. Treated HeLa cells were lysed with RIPA buffer. After clearing by centrifugation, the lysate was incubated with the beads coupled to anti-Bub1 antibody for 2 hrs at 4°C. The beads were washed with the lysis buffer for three times. The proteins bound to the beads were dissolved in loading buffer and separated by 10% SDS-PAGE, and probed with the mouse monoclonal anti-hPlk1 antibody (Cat# P5998; Sigma; 1:3000) and rabbit polyclonal anti-Bub1 antibody (Cat# ab70372;Abcam; 1:2000), respectively.

[1] = system: PARP cleavage in HeLa cells; assay: Western blot of PARP cleavage; type: cell-based, human; details: 24 hrs
Experimental: We also performed a western blot assay to examine PARP cleavage, and the protocol was similar as describe above. Equal amount of proteins (30 μg/lane) were loaded, separated by 12% SDS-PAGE. Anti-PARP rabbit polyclonal antibody (Cat# 9542P; Cell Signaling Technology; 1:1500) was used as primary antibody. GAPDH was used as the loading control.

T2 sequence (P53350 2-603 limits assumed): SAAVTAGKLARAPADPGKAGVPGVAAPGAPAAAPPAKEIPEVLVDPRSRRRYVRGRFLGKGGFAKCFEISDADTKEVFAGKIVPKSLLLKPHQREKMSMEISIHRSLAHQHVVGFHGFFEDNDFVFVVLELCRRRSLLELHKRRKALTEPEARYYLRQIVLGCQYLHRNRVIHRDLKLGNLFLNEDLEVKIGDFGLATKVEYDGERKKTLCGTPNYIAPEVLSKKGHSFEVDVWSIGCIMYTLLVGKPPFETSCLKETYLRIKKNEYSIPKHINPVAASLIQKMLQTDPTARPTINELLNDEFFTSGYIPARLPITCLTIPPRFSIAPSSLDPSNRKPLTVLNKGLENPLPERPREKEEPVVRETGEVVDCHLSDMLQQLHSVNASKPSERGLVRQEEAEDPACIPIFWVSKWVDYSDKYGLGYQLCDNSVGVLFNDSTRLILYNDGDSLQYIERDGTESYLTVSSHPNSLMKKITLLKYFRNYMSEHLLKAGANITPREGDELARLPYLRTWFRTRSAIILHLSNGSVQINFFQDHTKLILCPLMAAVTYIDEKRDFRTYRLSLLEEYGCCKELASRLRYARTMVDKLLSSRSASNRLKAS

For `CCS(=O)(=O)c1oc(-c2ccc(F)cc2)nc1S(=O)(=O)c1ccccc1` [T521, 5-(ethylsulfonyl)-2-(4-fluorophenyl)-4-(phenylsulfonyl) oxazole], the “percentage of prometaphase cells” value (HeLa cells; 5 μM) was 32.7%, the “percentage of prometaphase cells” value (HeLa cells; 10 μM) was 56.0% and the “percentage of prometaphase cells” value (HeLa cells; 15 μM) was 76.2%. The “metaphase cells with chromosome alignment defects” value (HeLa cells; synchronized HeLa, 5, 10, 15 μM) was “remarkable increase”, the pIC50 (Plk3 PBD; FP assay, 1 hr preincubation at RT, read-out: Apparent IC50) was less than 3.30 and the “inhibition of binding of PBD to FITC-labeled phosphopeptide” value (Plk3 PBD; concentration as high as 500 μM) was “little inhibition”. The pIC50 (HEK-293) was 5.06, the “Plk1 protein level in Bub1 immunoprecipitates” value (Plk1-Bub1 interaction) was “clear decrease” and the PARP cleavage [1] was “increase of PARP cleavage”.
